According to ChEMBL document CHEMBL5360532, “Current scenario of quinolone hybrids with potential antibacterial activity against ESKAPE pathogens” (Eur J Med Chem, 2023):
pIC50: −log10 of the molar value. Converted amounts (≈) assume the structure as drawn.

Columns and labels:
[1] = system: Enterobacter cloacae; assay: Antibacterial activity against fosfomycin resistant Enterobacter cloacae assessed as bacterial growth inhibition measured after 24 hrs by agar dilution assay; type: functional
[2] = system: Enterococcus faecalis; assay: Antibacterial activity against Enterococcus faecalis ATCC 29212 assessed as bacterial growth inhibition measured after 24 hrs by agar dilution assay; type: functional
[3] = system: Citrobacter; assay: Antibacterial activity against Citrobacter assessed as bacterial growth inhibition measured after 24 hrs by agar dilution assay; type: functional
[4] = system: Escherichia coli; assay: Antibacterial activity against ESBL-producing Escherichia coli assessed as bacterial growth inhibition measured after 24 hrs by agar dilution assay; type: functional
[5] = system: Enterococcus faecalis; assay: Antibacterial activity against vancomycin resistant Enterococcus faecalis assessed as bacterial growth inhibition measured after 24 hrs by agar dilution assay; type: functional
[6] = system: Salmonella typhimurium; assay: Antibacterial activity against Salmonella typhi assessed as bacterial growth inhibition measured after 24 hrs by agar dilution assay; type: functional, Salmonella enterica subsp. enterica serovar […]; settings: Salmonella enterica
[7] = system: Serratia marcescens; assay: Antibacterial activity against Serratia marcescens assessed as bacterial growth inhibition measured after 24 hrs by agar dilution assay; type: functional
[8] = system: Pseudomonas aeruginosa; assay: Antibacterial activity against imipenem resistant Pseudomonas aeruginosa VIM-2 assessed as bacterial growth inhibition measured after 24 hrs by agar dilution assay; type: functional
[9] = system: Staphylococcus aureus; assay: Antibacterial activity against Staphylococcus aureus assessed as bacterial growth inhibition by agar cup diffusion method; type: functional
[10] = system: Staphylococcus aureus; assay: Antibacterial activity against Staphylococcus aureus AUMC B-73 assessed as bacterial growth inhibition by agar cup diffusion method; type: functional
[11] = system: Enterococcus faecalis; assay: Antibacterial activity against Enterococcus faecalis assessed as bacterial growth inhibition by broth microdilution assay; type: functional
[12] = system: Escherichia coli; assay: Antibacterial activity against Escherichia coli MTCC 1687 assessed as bacterial growth inhibition measured after 24 hrs by microdilution assay; type: functional
[13] = system: Enterococcus faecalis; assay: Antibacterial activity against Enterococcus faecalis assessed as zone of inhibition at 50 mg/ml by agar well diffusion assay; type: functional; settings: read-out: IZ
[14] = system: Mycobacterium tuberculosis; assay: Antimycobacterial activity against Mycobacterium tuberculosis H37Rv assessed as bacterial growth inhibition; type: functional
[15] = system: Escherichia coli; assay: Antibacterial activity against Escherichia coli ATCC35218 assessed as bacterial growth inhibition measured after 18 to 24 hrs inhibition by broth microdilution assay; type: functional; settings: time 18-24 hrs
[16] = system: Staphylococcus aureus; assay: Antibacterial activity against Staphylococcus aureus assessed as bacterial growth inhibition by agar well diffusion assay; type: functional, organism-based
[17] = system: Staphylococcus aureus; assay: Antibacterial activity against Staphylococcus aureus assessed as bacterial growth inhibition measured after 24 hrs by agar cup diffusion assay; type: functional
[18] = system: Staphylococcus aureus; assay: Antibacterial activity against Staphylococcus aureus MLS16 MTCC 2940 assessed as bacterial growth inhibition measured after 24 hrs by microdilution assay; type: functional
[19] = system: Mycobacterium tuberculosis; assay: Antimycobacterial activity against Mycobacterium tuberculosis H37Rv assessed as bacterial growth inhibition by LJ slant assay; type: functional
[20] = system: Staphylococcus aureus; assay: Antibacterial activity against methicillin resistant Staphylococcus aureus assessed as bacterial growth inhibition by agar cup diffusion assay; type: functional
[21] = system: Pseudomonas aeruginosa; assay: Antibacterial activity against Pseudomonas aeruginosa assessed as bacterial growth inhibition measured after 20 hrs by serial dilution method; type: functional
[22] = system: Acinetobacter baumannii; assay: Antibacterial activity against Acinetobacter baumannii assessed as bacterial growth inhibition by serial dilution method; type: functional
[23] = system: Klebsiella pneumoniae; assay: Antibacterial activity against Klebsiella pneumoniae assessed as bacterial growth inhibition by serial dilution method; type: functional
[24] = system: Klebsiella pneumoniae; assay: Antibacterial activity against Klebsiella pneumoniae assessed as bacterial growth inhibition by broth microdilution assay; type: functional
[25] = system: Mycobacterium tuberculosis; assay: Antimycobacterial activity against extensive drug Mycobacterium tuberculosis assessed as bacterial growth inhibition by LJ slant assay; type: functional
[26] = system: Klebsiella pneumoniae; assay: Antibacterial activity against Klebsiella pneumoniae assessed as bacterial growth inhibition by agar cup diffusion assay; type: functional
[27] = system: Staphylococcus aureus; assay: Antibacterial activity against methicillin resistant Staphylococcus aureus assessed as bacterial growth inhibition by microdilution assay; type: functional
[28] = system: Escherichia coli; assay: Antibacterial activity against Escherichia coli assessed as bacterial growth inhibition by broth microdilution assay; type: functional
[29] = system: Escherichia coli; assay: Antibacterial activity against Escherichia coli assessed as zone of inhibition at 50 mg/ml by agar well diffusion assay; type: functional; settings: read-out: IZ
[30] = system: Escherichia coli; assay: Antibacterial activity against fluoroquinolone Escherichia coli assessed as bacterial growth inhibition by broth microdilution assay; type: functional
[31] = system: Staphylococcus aureus; assay: Antibacterial activity against Staphylococcus aureus assessed as zone of inhibition at 50 mg/ml cup plate assay; type: functional; settings: read-out: IZ
[32] = system: Escherichia coli; assay: Antibacterial activity against Escherichia coli assessed as zone of inhibition at 50 mg/ml cup plate assay; type: functional; settings: read-out: IZ
[33] = system: Pseudomonas aeruginosa; assay: Antibacterial activity against Pseudomonas aeruginosa ATCC43288 assessed as bacterial growth inhibition measured after 18 to 24 hrs inhibition by broth microdilution assay; type: functional; settings: time 18-24 hrs
[34] = system: Klebsiella pneumoniae; assay: Antibacterial activity against Klebsiella pneumoniae assessed as zone of inhibition at 250 ug/ml by agar well diffusion assay; type: functional; settings: read-out: IZ
[35] = system: Pseudomonas aeruginosa; assay: Antibacterial activity against Pseudomonas aeruginosa […] assessed as bacterial growth inhibition measured after 18 to 24 hrs inhibition by broth microdilution assay; type: functional; settings: time 18-24 hrs
[36] = system: Acinetobacter baumannii; assay: Antibacterial activity against Acinetobacter baumannii assessed as bacterial growth inhibition by broth microdilution assay; type: functional
[37] = system: Streptococcus pneumoniae; assay: Antibacterial activity against Streptococcus pneumoniae assessed as zone of inhibition at 50 mg/ml by agar well diffusion assay; type: functional; settings: read-out: IZ
[38] = system: Staphylococcus aureus; assay: Antibacterial activity against Staphylococcus aureus MTCC 737 assessed as bacterial growth inhibition measured after 24 hrs by microdilution assay; type: functional
[39] = system: Staphylococcus aureus; assay: Antibacterial activity against Staphylococcus aureus assessed as bacterial growth inhibition by agar cup diffusion assay; type: functional
[40] = system: Staphylococcus aureus; assay: Antibacterial activity against Staphylococcus aureus assessed as bacterial growth inhibition measured after 20 hrs by serial dilution method; type: functional
[41] = system: Pseudomonas aeruginosa; assay: Antibacterial activity against Pseudomonas aeruginosa assessed as bacterial growth inhibition by agar well diffusion assay; type: functional, organism-based
[42] = system: Staphylococcus aureus; assay: Antibacterial activity against Staphylococcus aureus assessed as zone of inhibition at 50 mg/ml by agar well diffusion assay; type: functional; settings: read-out: IZ
[43] = system: Staphylococcus aureus; assay: Antibacterial activity against methicillin resistant Staphylococcus aureus ATCC 12493 assessed as bacterial growth inhibition by broth microdilution assay; type: functional
[44] = system: Staphylococcus aureus; assay: Antibacterial activity against Staphylococcus aureus ATCC 25923 assessed as bacterial growth inhibition measured after 16 hrs by broth microdilution assay; type: functional
[45] = system: Mycobacterium tuberculosis; assay: Antimycobacterial activity against multidrug Mycobacterium tuberculosis assessed as bacterial growth inhibition by LJ slant assay; type: functional
[46] = system: Pseudomonas aeruginosa; assay: Antibacterial activity against Pseudomonas aeruginosa assessed as zone of inhibition at 250 ug/ml by agar well diffusion assay; type: functional; settings: read-out: IZ
[47] = system: Escherichia coli; assay: Antibacterial activity against Escherichia coli assessed as bacterial growth inhibition by serial dilution method; type: functional
[48] = system: Escherichia coli; assay: Antibacterial activity against Escherichia coli assessed as bacterial growth inhibition by agar cup diffusion assay; type: functional
[49] = system: Staphylococcus aureus; assay: Antibacterial activity Staphylococcus aureus ATCC 25923 assessed as bacterial growth inhibition by broth microdilution assay; type: functional
[50] = system: Klebsiella pneumoniae; assay: Antibacterial activity against Klebsiella pneumoniae assessed as bacterial growth inhibition measured after 20 hrs by serial dilution method; type: functional
[51] = system: Klebsiella pneumoniae; assay: Antibacterial activity against Klebsiella pneumoniae AUMC B-77 assessed as bacterial growth inhibition by agar cup diffusion method; type: functional
[52] = system: Escherichia coli; assay: Antibacterial activity against Escherichia coli assessed as bacterial growth inhibition measured after 20 hrs by serial dilution method; type: functional
[53] = system: Pseudomonas aeruginosa; assay: Antibacterial activity against Pseudomonas aeruginosa assessed as bacterial growth inhibition by agar cup diffusion assay; type: functional
[54] = system: Escherichia coli; assay: Antibacterial activity against Escherichia coli assessed as bacterial growth inhibition by agar well diffusion assay; type: functional, organism-based
[55] = system: Escherichia coli; assay: Antibacterial activity against Escherichia coli ATCC 25922 assessed as zone of inhibition at 50 mg/ml by agar diffusion assay; type: functional; settings: read-out: IZ
[56] = system: Staphylococcus aureus; assay: Antibacterial activity against Staphylococcus aureus assessed as zone of inhibition at 250 ug/ml by agar well diffusion assay; type: functional; settings: read-out: IZ

SMILES: CCOP(=O)(OCC)C(Nc1ncc(-c2cc3ccccc3oc2=O)s1)c1cc2cccc(C)c2[nH]c1=O (stereo not given)
- MIC [1]: 0.25 µg/mL (≈ 0.453 µM)
- MIC [2]: 0.25 µg/mL (≈ 0.453 µM)
- MIC [3]: 0.25 µg/mL (≈ 0.453 µM)
- MIC [4]: 0.25 µg/mL (≈ 0.453 µM)
- MIC [5]: 0.25 µg/mL (≈ 0.453 µM)
- MIC [6]: 0.25 µg/mL (≈ 0.453 µM)
- MIC [7]: 0.25 µg/mL (≈ 0.453 µM)
- MIC [8]: 0.25 µg/mL (≈ 0.453 µM)

SMILES: C/C(=N\O)c1ccc(NC(=O)C(C)N2CCN(c3cc4c(cc3F)c(=O)c(C(=O)O)cn4C3CC3)CC2)cc1 (stereo not given)
- MIC [9]: 0.38 µg/mL (≈ 0.71 µM)
- MIC [10]: 0.2 µg/mL (≈ 0.373 µM)

SMILES: O=C(O)c1cn(C2CC2)c2cc(N3CCNCC3)c(F)cc2c1=O [CIPROFLOXACIN]
- MIC [11]: 0.72 µg/mL (≈ 2.17 µM)
- MIC [12]: 4.68 µg/mL (≈ 14.1 µM)
- zone of inhibition at 50000 µg/mL [13]: 30 mm
- MIC [14]: 11.2 µg/mL (≈ 34 µM)
- MIC [15]: ≤ 0.03 µg/mL
- pIC50 [16]: 4.76
- MIC [16]: 1.06 µg/mL (≈ 3.2 µM)
- MIC [17]: 3.25 µg/mL (≈ 9.81 µM)
- MIC [18]: 4.68 µg/mL (≈ 14.1 µM)
- MIC [19]: ≥ 2 µg/mL
- MIC [10]: 1.6 µg/mL (≈ 4.83 µM)
- MIC [20]: 5.49 µg/mL (≈ 16.6 µM)
- MIC [21]: 0.24 µg/mL (≈ 0.724 µM)
- MIC [22]: 0.312 µg/mL (≈ 0.942 µM)
- MIC [23]: 0.312 µg/mL (≈ 0.942 µM)
- MIC [24]: 0.004 µg/mL (≈ 0.0121 µM)
- MIC [25]: ≥ 2 µg/mL
- MIC [26]: 1.9 µg/mL (≈ 5.73 µM)
- MIC [27]: 0.5 µg/mL
- MIC [28]: 0.195 µg/mL (≈ 0.589 µM)
- zone of inhibition at 50000 µg/mL [29]: 33 mm
- MIC [30]: 0.72 µg/mL (≈ 2.17 µM)
- zone of inhibition at 50000 µg/mL [31]: 11 mm
- zone of inhibition at 50000 µg/mL [32]: 13 mm
- MIC [33]: ≤ 0.03 µg/mL
- zone of inhibition at 250 µg/mL [34]: 17 mm
- MIC [35]: ≤ 0.03 µg/mL
- MIC [36]: 0.004 µg/mL (≈ 0.0121 µM)
- zone of inhibition at 50000 µg/mL [37]: 30 mm
- MIC [38]: 4.68 µg/mL (≈ 14.1 µM)
- MIC [39]: 0.5 µg/mL (≈ 1.51 µM)
- MIC [40]: 0.24 µg/mL (≈ 0.724 µM)
- pIC50 [41]: 4.76
- MIC [41]: 1.06 µg/mL (≈ 3.2 µM)
- zone of inhibition at 50000 µg/mL [42]: 33 mm
- MIC [43]: 0.49 µg/mL (≈ 1.48 µM)
- MIC [44]: 0.78 µg/mL (≈ 2.35 µM)
- MIC [45]: ≥ 2 µg/mL
- zone of inhibition at 250 µg/mL [46]: 17 mm
- MIC [47]: 0.312 µg/mL (≈ 0.942 µM)
- MIC [48]: 1.9 µg/mL (≈ 5.73 µM)
- MIC [49]: 4 µg/mL (≈ 12.1 µM)
- MIC [50]: 0.24 µg/mL (≈ 0.724 µM)
- MIC [51]: 3.6 µg/mL (≈ 10.9 µM)
- MIC [52]: 0.24 µg/mL (≈ 0.724 µM)
- MIC [53]: 8.62 µg/mL (≈ 26 µM)
- pIC50 [54]: 4.76
- MIC [54]: 1.06 µg/mL (≈ 3.2 µM)
- zone of inhibition at 50000 µg/mL [55]: 26.3 mm
- zone of inhibition at 250 µg/mL [56]: 17 mm
